Test results reported in US20120129811A1, “TRICYCLIC INHIBITORS OF PRO-MATRIX METALLOPROTEINASE ACTIVATION” (priority 2010, published 2012).
Where a name gives a salt, the structure may show the parent alone.

Tests used:
[1] = biological target: T1, proMMP9(20-445;ΔFnII) (SEQ ID NO:6) (Homo sapiens, UniProt P14780, DEL216-390); test: ThermoFluor binding assay with proMMP9(20-445;ΔFnII)
T1 construct: start methionine (N); made in house; host or cells: E. coli BL21(DE3) RIL
T1 sequence (P14780 with tags, fused parts or gaps DEL216-390): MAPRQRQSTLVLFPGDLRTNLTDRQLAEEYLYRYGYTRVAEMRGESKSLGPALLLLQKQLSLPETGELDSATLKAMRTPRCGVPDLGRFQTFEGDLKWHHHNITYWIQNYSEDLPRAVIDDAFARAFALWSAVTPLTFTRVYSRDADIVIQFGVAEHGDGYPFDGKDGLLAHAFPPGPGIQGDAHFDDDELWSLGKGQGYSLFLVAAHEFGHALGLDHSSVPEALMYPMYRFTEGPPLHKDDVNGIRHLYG
Summary of the method: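 Protein thermal stability was measured with 2.8 μM proMMP9(20-445;ΔFnII) and 50 μM 1,8-ANS in 50 mM HEPES pH 7.0, 100 mM NaCl, 0.001% Tween-20, 2.5 mM MgCl2, 300 μM CaCl2, across serial compound dilutions. Samples were heated 40–90° C at 1° C/min with fluorescence read at 500 nm. Tm was fitted, and binding was derived from thermodynamic parameters obtained by DSC and ThermoFluor.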

[2] = biological target: T2, full-length proMMP9(1-707) activation by catalytic MMP3 (Homo sapiens, UniProt P14780, R574P); test: proMMP9/MMP3 P126 Activation Assay; assay type: biochemical
T2 construct: made in house; host or cells: proMMP9: HEK293 (secreted); MMP3: E. coli
Experimental: proMMP9/MMP3 P126 Activation Assay
The reaction volume was 50 μL. […] Reactivity of residual MMP3 towards P-126 substrate was minimal under these conditions.

[3] = biological target: T3, proMMP13(1-268) (SEQ ID NO:7) (Homo sapiens, UniProt P45452); test: ThermoFluor binding assay with proMMP13(1-268)
T3 construct: 6xHis (C); made in house; host or cells: HEK293 (transient, secreted)
Experimental: The ThermoFluor® (TF) assay is a 384-well plate-based binding assay that measures thermal stability of proteins (Biomol Screen 2001, 6, 429-40; Biochemistry 2005, 44, 5258-66). The experiments were carried out using instruments available from Johnson & Johnson Pharmaceutical Research & Development, LLC. TF dye used in all experiments was […] (1,8-ANS) (Invitrogen: A-47).
Compounds were arranged in a pre-dispensed plate (Greiner Bio-one: 781280), wherein compounds were serially diluted in 100% DMSO across 11 columns within a series. Columns 12 and 24 were used as DMSO reference and contained no compound. For multiple compound concentration-response experiments, the compound aliquots (50 nL) were robotically predispensed directly into black 384-well polypropylene PCR microplates (Abgene: TF-0384/k) using a Cartesian Hummingbird liquid handler (DigiLab, Holliston, Mass.). Following compound dispense, protein and dye solutions were added to achieve the final assay volume of 3 μL. The assay solutions were overlayed with 1 μL of silicone oil (Fluka, type DC 200: 85411) to prevent evaporation.
Assay plates were robotically loaded onto a thermostatically controlled PCR-type thermal block and then heated from 40 to 90° C. at a ramp-rate of 1° C./min for all experiments. Fluorescence was measured by continuous illumination with UV light (Hamamatsu LC6) supplied via fiber optics and filtered through a band-pass filter (380-400 nm; >60D cutoff). Fluorescence emission of the entire 384-well plate was detected by measuring light intensity using a CCD camera (Sensys, Roper Scientific) filtered to detect 500±25 nm, resulting in simultaneous and independent readings of all 384 wells. A single image with 20-sec exposure time was collected at each temperature, and the sum of the pixel intensity in a given area of the assay plate was recorded vs temperature and fit to standard equations to yield the Tm (J Biomol Screen 2001, 6, 429-40).
Thermodynamic parameters necessary for fitting compound binding for each proMMP were estimated by differential scanning calorimetry (DSC) and from ThermoFluor® data. The heat capacity of unfolding for each protein was estimated from the molecular weight and from ThermoFluor® dosing data.
ThermoFluor® with proMMP13(1-268) (SEQ ID NO: 7)
The proMMP13(1-268) (SEQ ID NO:7) protein sample preparations included a desalting buffer exchange step via a PD-10 gravity column (GE Healthcare). The desalting buffer exchange was performed prior to diluting the protein to the final assay concentration of 3.5 μM. The concentration of proMMP13(1-268) (SEQ ID NO:7) was estimated spectrophotometrically based on a calculated extinction coefficient of ε280=37000 M^−1 cm^−1, a calculated molecular weight of 30.8 kDa, and calculated pI of 5.33. ThermoFluor® reference conditions were defined as follows: 100 μg/mL proMMP13(1-268) (SEQ ID NO:7), 25 μM 1,8-ANS, pH 7.0 Buffer (50 mM HEPES pH 7.0, 100 mM NaCl, 0.001% Tween-20, 2.5 mM MgCl2, 300 μM CaCl2). The thermodynamic parameters for proMMP13(1-268) (SEQ ID NO:7) are as follows: Tm (° C.)=67 (+/−0.1), ΔUH(Tm)) (cal mol^−1)=107000(+/−5000), ΔUSTm (cal mol^−1 K^−1)=318, ΔUCp (cal mol^−1 K^−1)=2600.

[4] = biological target: T4, proMMP9(67-444;ΔFnII) (SEQ ID NO:5) (Homo sapiens, UniProt P14780, DEL216-390); test: ThermoFluor binding assay with proMMP9(67-444;ΔFnII)
T4 construct: start methionine (N); made in house; host or cells: E. coli BL21(DE3) RIL
T4 sequence (P14780 with tags, fused parts or gaps DEL216-390): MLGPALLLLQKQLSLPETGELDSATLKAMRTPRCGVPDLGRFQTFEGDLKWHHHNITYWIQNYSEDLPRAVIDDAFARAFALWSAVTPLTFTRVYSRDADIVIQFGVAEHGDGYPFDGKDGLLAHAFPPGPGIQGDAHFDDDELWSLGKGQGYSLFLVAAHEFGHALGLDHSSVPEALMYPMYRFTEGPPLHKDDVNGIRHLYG
Summary of the method: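 Thermal shift of 3.5 μM proMMP9(67-444;ΔFnII), desalted beforehand, with 50 μM 1,8-ANS in 50 mM HEPES pH 7.0, 100 mM NaCl, 2.5 mM MgCl2, 300 μM CaCl2, 0.001% Tween-20. Heated 40–90 °C at 1 °C/min, fluorescence read at 500 nm; binding fitted from Tm shifts using DSC- and ThermoFluor-derived unfolding parameters.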

T2 sequence (P14780 20-707 R574P): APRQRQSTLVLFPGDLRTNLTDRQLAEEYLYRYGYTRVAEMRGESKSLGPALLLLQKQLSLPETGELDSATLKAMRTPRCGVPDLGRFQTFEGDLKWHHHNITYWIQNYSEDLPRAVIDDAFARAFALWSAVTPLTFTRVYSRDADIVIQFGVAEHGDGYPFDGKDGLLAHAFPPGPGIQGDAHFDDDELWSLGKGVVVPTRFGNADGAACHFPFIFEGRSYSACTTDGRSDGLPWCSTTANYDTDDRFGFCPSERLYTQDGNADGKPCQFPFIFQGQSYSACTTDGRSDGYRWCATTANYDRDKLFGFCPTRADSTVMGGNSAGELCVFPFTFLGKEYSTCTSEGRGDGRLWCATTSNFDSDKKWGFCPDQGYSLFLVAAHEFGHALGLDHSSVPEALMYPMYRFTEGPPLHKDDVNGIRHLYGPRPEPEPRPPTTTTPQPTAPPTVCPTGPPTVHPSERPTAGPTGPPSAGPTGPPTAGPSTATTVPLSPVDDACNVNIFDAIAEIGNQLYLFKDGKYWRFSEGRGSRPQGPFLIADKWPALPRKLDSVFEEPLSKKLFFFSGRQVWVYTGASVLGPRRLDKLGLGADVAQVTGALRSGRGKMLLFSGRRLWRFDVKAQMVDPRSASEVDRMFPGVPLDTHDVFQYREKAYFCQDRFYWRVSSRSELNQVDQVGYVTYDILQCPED

Kd [1] [nM]	IC50 [2] [nM]	Kd [3] [nM]	Kd [4] [nM]	Compound
940	130	710	91	CC(C)Oc1ccc(C(=O)O)cc1Nc1nc2c(ccc3[nH]c(N)nc32)s1 [Example 10, 3-(7-Amino-6H-imidazo[4′,5′:3,4]benzo[2,1-d]thiazol-2-ylamino)-4-isopropoxy-benzoic acid.HCl]
1300	250	470	720	CC(C)Oc1ccc(C(N)=O)cc1Nc1nc2c(ccc3[nH]c(N)nc32)s1 [Example 11, 3-(7-Amino-6H-imidazo[4′,5′:3,4]benzo[2,1-d]thiazol-2-ylamino)-4-isopropoxy-benzamide.HCl]
880	630	3400	550	CC(=O)Nc1nc2c(ccc3sc(Nc4cc(C(N)=O)ccc4OC(C)C)nc32)[nH]1 [Example 18, 3-(7-Acetylamino-6H-imidazo[4′,5′:3,4]-benzo[2,1-d]thiazol-2-ylamino)-4-isopropoxy-benzamide.HCl]
460	350	2200	380	Cc1nc2c(ccc3sc(Nc4cc(C(N)=O)ccc4OC(C)C)nc32)[nH]1 [Example 19, 4-Isopropoxy-3-(7-methyl-6H-imidazo[4′,5′:3,4]benzo[2,1-d]thiazol-2-ylamino)-benzamide.HCl]
260	64	–	14	Cc1nc2c3nc(Nc4cnccc4OC(C)C)sc3ccc2n1C [Example 158, N-(4-Isopropoxypyridin-3-yl)-6,7-dimethyl-6H-imidazo[4′,5′:5,6]benzo[1,2-d]thiazol-2-amine.HCl]
290	160	–	75	CC(C)Oc1ccc(C#N)cc1Nc1nc2c(ccc3c2ncn3C)s1 [Example 160, 4-isopropoxy-3-((6-methyl-6H-imidazo[4′,5′:5,6]benzo[1,2-d]thiazol-2-yl)amino)benzonitrile.HCl]
360	180	–	110	Cn1cnc2c3nc(Nc4cc(C#N)ccc4OC(F)(F)F)sc3ccc21 [Example 164]

The next lines start with the compound.

Compound	Kd [1] [nM]	IC50 [2] [nM]	Kd [3] [nM]	Kd [4] [nM]
COc1ccccc1Nc1nc2c(ccc3sc(N)nc32)s1 [Example 1, N^7-(2-Methoxy-phenyl)-benzo[2,1-d;3,4-d′]-bisthiazole-2,7-<diamine.TFA]	3600	2800	7000	810
COc1ccccc1Nc1nc2c(ccc3nc(N)sc32)s1 [Example 2, N^7-(2-Methoxy-phenyl)-benzo[1,2-d;3,4-d′]-bisthiazole-2,7-diamine.TFA]	2200	1300	8700	410
CC(C)Oc1ccc(C(N)=O)cc1Nc1nc2c(ccc3nc(N)sc32)s1 [Example 5, 3-(2-Amino-benzo[1,2-d;3,4-d′]bisthiazol-7-ylamino)-4-isopropoxy-benzamide.TFA]	320	920	730	410
COc1ccccc1Nc1nc2c(ccc3[nH]c(N)nc32)s1 [Example 6, N^2-(2-Methoxy-phenyl)-6H-imidazo[4′,5′:3,4]benzo[2,1-d]thiazole-2,7-diamine]	2400	660	11000	290
COc1ccc(OC)c(Nc2nc3c(ccc4nc(N)sc43)s2)c1 [Example 8, N^7-(2,5-Dimethoxy-phenyl)-benzo[1,2-d;3,4-d′]-bisthiazole-2,7-diamine.TFA]	3100	1200	1800	680
CC(C)Oc1ccccc1Nc1nc2c(ccc3nc(N)sc32)s1 [Example 9, N^7-(2-Isopropoxy-phenyl)-benzo[1,2-d;3,4-d′]-bisthiazole-2,7-diamine.TFA]	27000	10000	18000	4400
Cc1nc2c(s1)-c1nc(Nc3cc(C(N)=O)ccc3OC(C)C)sc1CC2 [Example 12, 4-Isopropoxy-3-(2-methyl-4,5-dihydro-benzo[1,2-d;3,4-d′]-bisthiazol-7-ylamino)-benzamide.TFA]	1700	1100	6500	3800
Cc1nc2ccc3sc(Nc4cc(C(N)=O)ccc4OC(C)C)nc3c2s1 [Example 13, 4-Isopropoxy-3-(2-methyl-benzo[1,2-d;3,4-d′]bisthiazol-7-ylamino)-benzamide.TFA]	230	420	2200	390
COc1ccccc1Nc1nc2c(s1)CCCc1nc(N)sc1-2 [Example 14, N^8-(2-Methoxy-phenyl)-5,6-dihydro-4H-1,7-dithia-3,9-diaza-cyclopenta[e]azulene-2,8-diamine.TFA]	2400	1100	20000	550
Nc1nc2c(ccc3sc(Nc4cccc(C(=O)O)c4)nc32)[nH]1 [Example 15, 3-(7-Amino-6H-imidazo[4′,5′:3,4]benzo[2,1-d]thiazol-2-ylamino)-benzoic acid.TFA]	> 95000	3500	33000	9900
COc1ccccc1Nc1nc2c(ccc3[nH]c(NC(C)=O)nc32)s1 [Example 16, N-[2-(2-Methoxy-phenylamino)-6H-imidazo[4′,5′:3,4]benzo[2,1-d]thiazol-7-yl]-acetamide.TFA]	5000	890	19000	990
CCn1c(C)nc2ccc3sc(Nc4cnccc4OC(C)C)nc3c21 [Example 159, 8-Ethyl-N-(4-isopropoxypyridin-3-yl)-7-methyl-8H-imidazo[4′,5′:5,6]benzo[1,2-d]thiazol-2-amine.HCl]	380	66	–	43
